These are literature values, as cited in patent publication US8636711B2 (priority 2010, dated 2014).

`NS(=O)(=O)c1cc(C(=O)O)c(NCc2ccco2)cc1Cl` [furosemide]: the tolerability result (intravenous or subcutaneous routes) is on record as “generally well-tolerated”. Besides, the pH value (parenteral) is given as 11-12.
